These results are taken from US20110312984A1, “STAT3 INHIBITORS” (priority 2008, published 2011).

Holding throughout (format): cell-based
One assay concerns the target T1, Stat1 (Homo sapiens, UniProt P42224).
T1 construct: endogenous in cells; host or cells: HepG2
T1 sequence (P42224 1-750): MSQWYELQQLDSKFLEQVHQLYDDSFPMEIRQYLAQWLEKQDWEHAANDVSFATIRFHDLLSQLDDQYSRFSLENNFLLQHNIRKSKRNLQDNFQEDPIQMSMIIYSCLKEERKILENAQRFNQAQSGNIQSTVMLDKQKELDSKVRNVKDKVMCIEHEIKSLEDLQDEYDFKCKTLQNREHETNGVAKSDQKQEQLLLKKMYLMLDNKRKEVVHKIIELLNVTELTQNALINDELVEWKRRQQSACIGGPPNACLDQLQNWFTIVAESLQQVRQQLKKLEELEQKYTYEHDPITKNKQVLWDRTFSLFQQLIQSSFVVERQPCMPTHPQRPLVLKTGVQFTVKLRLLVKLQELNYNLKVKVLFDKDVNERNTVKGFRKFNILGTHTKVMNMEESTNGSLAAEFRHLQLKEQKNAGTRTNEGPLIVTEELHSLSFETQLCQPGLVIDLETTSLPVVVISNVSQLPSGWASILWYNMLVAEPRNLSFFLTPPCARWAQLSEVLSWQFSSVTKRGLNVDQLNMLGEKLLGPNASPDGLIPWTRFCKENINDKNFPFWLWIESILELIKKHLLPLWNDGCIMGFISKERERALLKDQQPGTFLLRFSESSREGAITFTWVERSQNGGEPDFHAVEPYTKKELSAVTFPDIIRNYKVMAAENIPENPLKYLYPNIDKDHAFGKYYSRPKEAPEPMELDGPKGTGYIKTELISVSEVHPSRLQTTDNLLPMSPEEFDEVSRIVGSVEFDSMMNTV
Nature of the assay: Immunoblot assay: IFN-γ-mediated phosphorylation of Stat1 in HepG2 cells. The following applies: 300 μM, 1 hour at 37° C. before IFN-γ stimulation. The method, then: Immunoblot assay. The human hepatocellular carcinoma cell line (HepG2) was grown in 6-well plates under standard conditions. Cells were pretreated with compounds (0, 1, 3, 10, 30, 100 and 300 uM) for 1 hour then stimulated under optimal conditions with either interferon gamma (IFN-γ; 30 ng/ml for 30 min) to activate Stat1 or interleukin-6 (IL-6; 30 ng/ml for 30 min) to activate Stat3 (30-31). Cultures were then harvested and proteins extracted using high-salt buffer, as described (Shao et al., 2006). Briefly, extracts were mixed with 2× sodium dodecyl sulfate (SDS) sample buffer (125 mmol/L Tris-HCL pH 6.8; 4% SDS; 20% glycerol; 10% 2-mercaptoethanol) at a 1:1 ratio and heated for 5 minutes at 100° C. Proteins (20 μg) were separated by 7.5% SDS-PAGE and transferred to polyvinylidene fluoride (PVDF) membrane (Millipore, Waltham, Mass.) and immunoblotted. Prestained molecular weight markers (Biorad, Hercules, Calif.) were included in each gel. Membranes were probed serially with antibody against Stat1 pY^701 or Stat3 pY^705 followed by antibody against Stat1 or Stat3 (Transduction labs, Lexington, Ky.) then antibody against β-actin (Abcam, Cambridge, Mass.). Membranes were stripped between antibody probing using Restore™ Western Blot Stripping Buffer (Thermo Fisher Scientific Inc., Waltham, Mass.) per the manufacturer's instructions. Horseradish peroxidase-conjugated goat-anti-mouse IgG was used as the secondary antibody (Invitrogen Carlsbad, Calif.) and the membranes were developed with enhanced chemiluminescence (ECL) detection system (Amersham Life Sciences Inc.; Arlington Heights, Ill.).
EXP IIC. Ligand-mediated pStat3 and pStat1 inhibition assays. […] Briefly, human hepatocellular carcinoma cells (HepG2) are grown in 6-well plates and pretreated with compounds (0, 0.1, 0.3, 1, 3, 10, 30, 100 μM) for 1 hour then stimulated under optimal conditions with either interleukin-6 (IL-6; 30 ng/ml for 30 min) to activate Stat3 or interferon gamma (IFN-γ; 30 ng/ml for 30 min) to activate Stat1. Cells are harvested and proteins extracted using high-salt buffer, mixed with 2× sodium dodecyl sulfate (SDS) sample buffer (125 mmol/L Tris-HCL pH 6.8; 4% SDS; 20% glycerol; 10% 2-mercaptoethanol) at a 1:1 ratio then heated for 5 minutes at 100° C. Proteins (20 μg) are separated by 7.5% SDS-PAGE and transferred to polyvinylidene fluoride (PVDF) membrane (Millipore, Waltham, Mass.) and immunoblotted. Membranes are probed serially with antibody against Stat1 pY701 or Stat3 pY705 followed by antibody against Stat 1 or Stat3 (Transduction labs, Lexington, Ky.) then antibody against β-actin (Abcam, Cambridge, Mass.). Membranes are stripped between antibody probings using Restore™ Western Blot Stripping Buffer (Thermo Fisher Scientific Inc., Waltham, Mass.) per the manufacturer's instructions. Horseradish peroxidase-conjugated goat-anti-mouse IgG is used as the secondary antibody (Invitrogen Carlsbad, Calif.) and the membranes are developed with enhanced chemiluminescence (ECL) detection system (Amersham Life Sciences Inc.; Arlington Heights, Ill.). Band intensities are quantified by densitometry. The value of each pStat3 band is divided by its corresponding total Stat3 band intensity; the results are normalized to the DMSO-treated control value. This value was plotted as a function of the log compound concentration. The best-fitting curve is determined using 4-Parameter Logistic Model/Dose Response/XLfit 4.2, IDBS software and was used to calculate the IC50 value.
Background: In western blotting, separated proteins are transferred to a membrane and probed.

For a further assay, the system named is MDA-MB-453. Nature of the assay: Breast cancer cell line apoptosis assay (nucleosome ELISA). The following applies: Homo sapiens, MDA-MB-453, 24 h. The method, then:
(§1) Breast cancer cell line apoptosis assay. Human breast carcinoma cell lines MDA-MB-468, MDA-MB-231, MBA-MD-435 and MCF7 were kindly provided by Dr. Powel H. Brown (Breast Cancer Center, Baylor College of Medicine). Breast cancer cell line, MDA-MB-453 was kindly provided by Dr. Shou Jiang (Breast Cancer Center, Baylor College of Medicine). All cell lines were grown in DMEM medium supplemented with 10% fetal bovine serum (FBS), 25,000 units penicillin G, 25,000 ug streptomycin, and 131.4 mg L-Glutamine and cultured in the incubator under the condition of 95% air, 5% CO2 at 37° C. (Garcia et al., 2001). Cells were seeded at 2,500 cells/cm^2 into 12-well plates. At 80% confluency, cells were washed with PBS and supplemented with fresh medium containing compound or the topoisomerase I-inhibitor, camptothecin, at 0, 0.1, 03, 1, 3, 10, 30, 100, 300 µM. At 24 hours, treatment was terminated by removing the medium from each well. Cells were lysed with cell lysis buffer (600 μl for 30 minutes at 25° C.). Cell lysate (200 μl) was centrifuged at 200×g for 10 minutes and 20 μl of each supernatant was assayed for nucleosomes using the Cell Death Detection ELISA (Roche Applied Science) as described by the manufacturer. The percent maximum nucleosome level was calculated by dividing the nucleosome level by the maximum nucleosome level achieved in the assay and multiplying by 100. […]
(In general: In an ELISA, binding on a coated surface is turned into a signal by an enzyme label.)

The subject of another assay is MCF7. Described as above. The following applies: Homo sapiens, MCF7, 24 h. The method, then: as §1

Consider `O=C(O)CSc1cc(NS(=O)(=O)c2ccc(C(=O)O)cc2)c2ccccc2c1O` [Cpd188, 4-[({3-[(carboxymethyl)thio]-4-hydroxy-1-naphthyl}amino)sulfonyl]benzoic acid], for which the Stat1 phosphorylation blocked entry on Stat1 is “did not”. Also, the results for the EC50 in the assay on MDA-MB-453 and in the assay with MCF7 were 17.2 µM and 15.5 µM, respectively.
